Calls of active or inactive are those of the source.
Experiments:
[1] = biological target: T1, DNA repair and recombination protein RAD54-like (Homo sapiens, UniProt Q92698); assay: RAD54 Holliday junction migration blockers – biochemical, fluorescence, cherry-picked samples, dose series, confirmation (AID 651657); assay type: functional
T1 sequence (Q92698 whole entry): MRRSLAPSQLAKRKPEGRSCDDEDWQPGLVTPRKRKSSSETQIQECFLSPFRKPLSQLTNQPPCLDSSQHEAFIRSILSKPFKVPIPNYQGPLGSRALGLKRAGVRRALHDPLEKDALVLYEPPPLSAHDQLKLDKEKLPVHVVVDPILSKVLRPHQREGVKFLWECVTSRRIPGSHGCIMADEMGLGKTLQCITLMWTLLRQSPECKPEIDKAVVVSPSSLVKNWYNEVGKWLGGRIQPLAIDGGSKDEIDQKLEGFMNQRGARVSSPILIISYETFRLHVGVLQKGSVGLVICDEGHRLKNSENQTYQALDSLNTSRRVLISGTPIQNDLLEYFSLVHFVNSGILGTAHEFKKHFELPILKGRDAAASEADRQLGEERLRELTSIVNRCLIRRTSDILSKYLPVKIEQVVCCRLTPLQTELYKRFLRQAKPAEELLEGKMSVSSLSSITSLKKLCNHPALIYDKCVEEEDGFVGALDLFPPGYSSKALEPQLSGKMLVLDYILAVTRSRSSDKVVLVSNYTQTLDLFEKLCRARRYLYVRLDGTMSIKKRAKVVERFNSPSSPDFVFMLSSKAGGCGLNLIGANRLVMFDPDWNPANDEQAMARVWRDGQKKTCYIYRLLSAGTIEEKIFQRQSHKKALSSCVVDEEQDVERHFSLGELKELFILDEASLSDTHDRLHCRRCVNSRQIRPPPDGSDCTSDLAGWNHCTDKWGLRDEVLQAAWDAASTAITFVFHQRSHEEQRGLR

[2] = biological target: DNA repair protein RAD52 homolog (Homo sapiens, UniProt P43351); assay type: functional, biochemical
Sequence of DNA repair protein RAD52 homolog (P43351 whole entry): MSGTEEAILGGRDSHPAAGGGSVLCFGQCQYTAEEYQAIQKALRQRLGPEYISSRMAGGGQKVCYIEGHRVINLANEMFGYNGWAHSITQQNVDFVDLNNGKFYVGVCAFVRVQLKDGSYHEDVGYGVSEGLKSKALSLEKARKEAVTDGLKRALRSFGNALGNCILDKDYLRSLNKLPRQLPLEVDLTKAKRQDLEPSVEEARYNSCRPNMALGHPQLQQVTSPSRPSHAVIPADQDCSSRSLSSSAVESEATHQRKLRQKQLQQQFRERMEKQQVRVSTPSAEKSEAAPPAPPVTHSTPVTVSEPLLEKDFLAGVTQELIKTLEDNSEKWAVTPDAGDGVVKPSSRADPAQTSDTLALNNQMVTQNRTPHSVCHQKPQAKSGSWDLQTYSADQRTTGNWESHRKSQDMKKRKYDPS

[3] = Trypanosoma cruzi growth suppression in host cells – NIH3T3 host cells, beta-gal luminescence, confirmation (AID 2044); assay type: functional, cell-based;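 note: intracellular parasites grown in NIH/3T3 mouse fibroblasts as host cells; luminescent beta-galactosidase reporter signal from transgenic T. cruzi replicating inside host cells; inhibitors lower the luminescence signal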
[4] = NIH3T3 cell viability loss – ATP luminescence, mouse fibroblasts, counter-screen, dose response (AID 2010); assay type: functional, cell-based;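 note: cells exposed to compound for about 90 hours before reading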
[5] = biological target: T2, Heat shock factor protein 1 (Mus musculus, UniProt P38532); assay: decrease of HSF1-responsive luciferase luminescence – cell-based, NIH3T3, dose retest, confirmation (AID 2382); assay type: functional;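 note: NIH3T3 fibroblasts with HSF1-driven luciferase reporter stressed by proteasome inhibitor MG132; luminescence from HSF1-driven luciferase expression after 8 hours of MG132 stress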
T2 sequence (P38532 whole entry): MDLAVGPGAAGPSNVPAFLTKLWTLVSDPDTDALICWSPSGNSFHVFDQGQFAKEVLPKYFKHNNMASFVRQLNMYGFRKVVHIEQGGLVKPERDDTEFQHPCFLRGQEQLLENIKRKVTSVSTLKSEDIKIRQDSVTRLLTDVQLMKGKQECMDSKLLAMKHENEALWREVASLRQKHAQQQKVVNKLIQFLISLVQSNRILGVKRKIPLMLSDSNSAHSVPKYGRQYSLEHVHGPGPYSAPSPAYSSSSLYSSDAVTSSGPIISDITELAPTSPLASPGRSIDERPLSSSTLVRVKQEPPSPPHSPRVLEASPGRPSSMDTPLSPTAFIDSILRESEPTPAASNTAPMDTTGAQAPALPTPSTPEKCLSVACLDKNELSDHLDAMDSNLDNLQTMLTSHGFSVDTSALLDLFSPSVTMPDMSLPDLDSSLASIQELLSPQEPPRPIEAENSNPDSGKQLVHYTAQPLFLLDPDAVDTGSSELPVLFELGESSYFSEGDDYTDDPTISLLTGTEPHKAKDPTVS

[6] = biological target: Fructose-bisphosphate aldolase (Mycobacterium tuberculosis, UniProt P9WQA3); assay: Fluorescence-based biochemical high throughput dose response assay for inhibitors of the fructose-bisphosphate aldolase (FBA) of M. tuberculosis.; assay type: functional
Sequence of Fructose-bisphosphate aldolase (P9WQA3 whole entry): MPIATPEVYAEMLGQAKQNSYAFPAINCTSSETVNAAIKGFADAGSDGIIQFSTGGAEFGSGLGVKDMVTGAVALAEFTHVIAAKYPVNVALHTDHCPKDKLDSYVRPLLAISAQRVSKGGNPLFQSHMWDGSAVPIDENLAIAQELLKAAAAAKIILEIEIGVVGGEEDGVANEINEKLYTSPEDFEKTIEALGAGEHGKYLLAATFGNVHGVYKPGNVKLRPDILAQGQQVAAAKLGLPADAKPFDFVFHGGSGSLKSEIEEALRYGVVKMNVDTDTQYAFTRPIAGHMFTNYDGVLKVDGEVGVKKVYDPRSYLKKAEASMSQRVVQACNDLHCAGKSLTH

[7] = biological target: T2, Heat shock factor protein 1; assay: enhancement of HSF1-driven luciferase signal – cell-based, NIH3T3, luminescence, dose retest, confirmation (AID 435004); assay type: functional;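 note: stress induced by proteasome inhibitor MG132 added 30 min after compound; luciferase reporter driven by HSF1 response element in NIH3T3 cells; actives raise luminescence as potentiators of the MG132 stress response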
[8] = biological target: Beta-galactosidase (Escherichia coli, UniProt Q8VNN2); assay: Dose response counterscreen for EBI2 assay utilizing the enzyme, b-galactosidase.; assay type: functional
Sequence of Beta-galactosidase (Q8VNN2 whole entry): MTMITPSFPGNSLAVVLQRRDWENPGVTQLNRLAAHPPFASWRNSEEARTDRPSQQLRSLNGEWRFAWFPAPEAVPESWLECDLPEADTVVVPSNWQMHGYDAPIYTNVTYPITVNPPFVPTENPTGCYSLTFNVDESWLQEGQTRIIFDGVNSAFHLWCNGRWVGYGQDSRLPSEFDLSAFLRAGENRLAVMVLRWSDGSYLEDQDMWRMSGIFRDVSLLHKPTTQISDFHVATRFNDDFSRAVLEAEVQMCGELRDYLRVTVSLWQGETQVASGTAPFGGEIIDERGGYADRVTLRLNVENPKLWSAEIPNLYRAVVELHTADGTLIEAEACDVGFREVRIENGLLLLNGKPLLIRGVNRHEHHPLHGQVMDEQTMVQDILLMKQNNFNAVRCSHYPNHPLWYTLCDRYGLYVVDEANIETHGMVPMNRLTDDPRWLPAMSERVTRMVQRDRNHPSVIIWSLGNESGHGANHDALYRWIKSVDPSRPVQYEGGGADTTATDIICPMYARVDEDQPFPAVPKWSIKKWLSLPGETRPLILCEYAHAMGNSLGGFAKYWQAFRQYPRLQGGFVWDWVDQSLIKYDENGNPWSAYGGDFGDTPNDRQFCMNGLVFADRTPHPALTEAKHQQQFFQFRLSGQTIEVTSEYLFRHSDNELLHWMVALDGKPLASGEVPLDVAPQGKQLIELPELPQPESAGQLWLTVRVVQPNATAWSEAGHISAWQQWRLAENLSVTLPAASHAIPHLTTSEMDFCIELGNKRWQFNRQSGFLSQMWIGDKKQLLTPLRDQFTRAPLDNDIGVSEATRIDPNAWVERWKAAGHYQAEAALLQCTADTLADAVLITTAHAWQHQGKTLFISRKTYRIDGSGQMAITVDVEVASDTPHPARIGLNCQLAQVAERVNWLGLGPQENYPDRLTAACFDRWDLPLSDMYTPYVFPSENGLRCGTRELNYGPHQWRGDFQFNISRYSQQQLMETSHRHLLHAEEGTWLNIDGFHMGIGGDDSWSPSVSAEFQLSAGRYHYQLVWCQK

[9] = biological target: Voltage-dependent T-type calcium channel subunit alpha-1H (Homo sapiens, UniProt O95180); assay type: functional;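 note: channel activity triggered by adding a high calcium stimulation buffer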
[10] = biological target: T3, Corticotropin-releasing factor receptor 2/Corticotropin-releasing factor-binding protein (Homo sapiens, UniProt P24387+Q13324); assay: Dose Response confirmation of uHTS hits for small molecule antagonists of the CRF-binding protein and CRF-R2 receptor complex.; assay type: functional; settings: read-out: IC50_Mean
T3 sequence (Q13324 whole entry): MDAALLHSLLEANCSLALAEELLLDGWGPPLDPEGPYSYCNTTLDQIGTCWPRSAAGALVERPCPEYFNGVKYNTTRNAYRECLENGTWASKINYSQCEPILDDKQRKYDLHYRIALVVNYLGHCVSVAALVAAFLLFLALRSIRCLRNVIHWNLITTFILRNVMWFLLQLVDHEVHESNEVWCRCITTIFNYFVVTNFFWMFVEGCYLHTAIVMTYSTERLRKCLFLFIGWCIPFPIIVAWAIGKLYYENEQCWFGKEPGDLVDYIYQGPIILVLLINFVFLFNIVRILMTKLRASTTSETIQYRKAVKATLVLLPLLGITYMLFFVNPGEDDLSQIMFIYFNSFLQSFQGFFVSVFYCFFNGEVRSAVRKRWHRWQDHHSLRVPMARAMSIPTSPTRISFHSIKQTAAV
T3 sequence (P24387 whole entry): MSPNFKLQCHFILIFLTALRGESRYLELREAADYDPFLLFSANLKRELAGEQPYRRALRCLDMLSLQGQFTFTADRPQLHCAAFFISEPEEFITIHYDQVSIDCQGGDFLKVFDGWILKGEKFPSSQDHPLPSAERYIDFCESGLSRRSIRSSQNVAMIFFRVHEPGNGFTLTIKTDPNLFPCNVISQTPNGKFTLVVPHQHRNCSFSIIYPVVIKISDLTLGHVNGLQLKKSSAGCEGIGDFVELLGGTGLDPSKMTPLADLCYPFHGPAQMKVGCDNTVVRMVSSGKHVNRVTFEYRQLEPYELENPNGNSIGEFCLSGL

[11] = biological target: T3, Corticotropin-releasing factor receptor 2/Corticotropin-releasing factor-binding protein; assay: activators of CRF receptor 2 with binding protein – uHTS hits, confirmation (AID 602473); assay type: functional; settings: read-out: EC50_Mean
[12] = biological target: Mu-type opioid receptor (Homo sapiens, UniProt P35372); assay type: functional, cell-based;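 note: U2OS cells with beta-arrestin recruitment to OPRM1 by beta-gal complementation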
Sequence of Mu-type opioid receptor (P35372 whole entry): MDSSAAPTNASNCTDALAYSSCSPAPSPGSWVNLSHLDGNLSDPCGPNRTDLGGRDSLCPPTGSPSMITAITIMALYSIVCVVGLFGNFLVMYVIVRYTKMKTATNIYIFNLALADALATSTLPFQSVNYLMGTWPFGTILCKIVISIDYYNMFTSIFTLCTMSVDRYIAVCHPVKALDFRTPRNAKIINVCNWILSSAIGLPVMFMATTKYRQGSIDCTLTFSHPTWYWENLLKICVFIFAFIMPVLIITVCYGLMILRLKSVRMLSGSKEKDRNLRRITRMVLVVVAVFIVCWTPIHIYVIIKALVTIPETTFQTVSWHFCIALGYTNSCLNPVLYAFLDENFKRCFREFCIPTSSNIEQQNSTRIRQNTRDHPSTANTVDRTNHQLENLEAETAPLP

[13] = biological target: 5-hydroxytryptamine receptor 2A (Mus musculus, UniProt P35363); assay type: functional, cell-based;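 note: CHO-K1 cells with tagged receptor and beta-arrestin; agonist potency measured as compound-induced activation of the receptor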
Sequence of 5-hydroxytryptamine receptor 2A (P35363 whole entry): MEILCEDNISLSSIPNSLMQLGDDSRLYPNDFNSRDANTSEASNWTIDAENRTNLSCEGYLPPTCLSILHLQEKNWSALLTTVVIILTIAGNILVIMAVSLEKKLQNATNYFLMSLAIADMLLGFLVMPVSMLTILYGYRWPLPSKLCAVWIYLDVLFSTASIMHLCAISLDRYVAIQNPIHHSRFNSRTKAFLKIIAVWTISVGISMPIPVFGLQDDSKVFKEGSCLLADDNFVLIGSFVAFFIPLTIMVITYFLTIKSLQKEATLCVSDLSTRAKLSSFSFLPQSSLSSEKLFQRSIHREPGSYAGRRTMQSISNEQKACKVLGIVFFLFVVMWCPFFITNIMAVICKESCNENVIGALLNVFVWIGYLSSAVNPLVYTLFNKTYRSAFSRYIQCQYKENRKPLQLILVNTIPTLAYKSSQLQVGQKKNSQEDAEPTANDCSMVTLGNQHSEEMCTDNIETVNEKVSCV

[14] = cells; assay type: functional, cell-based
[15] = biological target: T4, Trace amine-associated receptor 1 (Homo sapiens, UniProt Q96RJ0); assay: Fluorescence-based cell-based high throughput dose response assay to identify agonists of the human trace amine associated receptor 1 (TAAR1).; assay type: functional
T4 sequence (Q96RJ0 whole entry): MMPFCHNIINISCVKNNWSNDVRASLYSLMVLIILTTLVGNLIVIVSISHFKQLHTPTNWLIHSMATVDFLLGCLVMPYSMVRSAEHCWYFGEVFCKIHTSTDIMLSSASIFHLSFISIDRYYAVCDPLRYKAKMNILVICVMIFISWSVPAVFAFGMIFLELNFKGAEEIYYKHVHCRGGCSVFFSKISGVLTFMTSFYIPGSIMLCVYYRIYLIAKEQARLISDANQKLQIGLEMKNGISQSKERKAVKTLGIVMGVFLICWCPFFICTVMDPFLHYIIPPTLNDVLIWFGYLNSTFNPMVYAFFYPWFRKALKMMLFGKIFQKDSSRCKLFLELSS

[16] = biological target: T4, Trace amine-associated receptor 1; assay: Counterscreen for agonists of the human trace amine associated receptor 1 (hTAAR1): Fluorescence-based cell-based high throughput dose response assay to identify hTAAR1 agonist that also desensitize TAAR1 receptor response.; assay type: functional
[17] = cells; assay type: functional, cell-based; remark: listed apart in the source
[18] = viability loss in CEM21 cells – cell-based, CellTiter-Glo luminescence, cherry-picked, cytotoxicity control for viral fusion inhibitor project, dose response (AID 652042); assay type: functional;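 note: potency for signal decrease meaning cytotoxicity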
[19] = Luminescence Cell-Based Dose Confirmation HTS to Identify Activators of 5'UTR Stem-Loop Driven Alpha-Synuclein mRNA Translation in H4 Neuroglioblastoma Cells. [Related pubchem assays: 1829 (Project Summary), 1814 (Primary HTS)]; assay type: functional
[20] = Luminescence Cell-Based Dose Response HTS to Identify Activators of Luciferase Translation or Activity in H4 […] Cells. [Related pubchem assays: 1829 (Project Summary), 1814 (Primary HTS)]; assay type: functional
[21] = system: H4; assay: Luminescence Cell-Based Dose Response HTS to Identify Activators of 5'UTR Stem-Loop Driven Prion Protein mRNA Translation in H4 Neuroglioblastoma Cells. [Related pubchem assays: 1829 (Project Summary), 1814 (Primary HTS)]; assay type: functional; settings: Homo sapiens
[22] = biological target: T5, Ubiquitin-conjugating enzyme E2 N (Homo sapiens, UniProt P61088); assay type: functional;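 note: Dose-response confirmation in a TR-FRET assay detecting UBC13-driven polyubiquitin chain formation, inhibition measured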
T5 sequence (P61088 whole entry): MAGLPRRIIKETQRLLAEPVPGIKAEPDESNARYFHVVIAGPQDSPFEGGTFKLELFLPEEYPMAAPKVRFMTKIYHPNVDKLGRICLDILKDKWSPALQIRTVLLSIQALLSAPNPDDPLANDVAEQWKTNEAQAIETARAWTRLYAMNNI

[23] = biological target: Melanocortin receptor 4 (Homo sapiens, UniProt P32245); assay type: functional, cell-based;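 note: Cell-based assay with luminescence read-out, confirmatory dose-response testing for agonist activity of biased ligands at MC4R; human U2OS cells with tagged receptor and beta-arrestin; potency of agonists that increase receptor coupling to beta-arrestin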
Sequence of Melanocortin receptor 4 (P32245 whole entry, the tested form may be a part): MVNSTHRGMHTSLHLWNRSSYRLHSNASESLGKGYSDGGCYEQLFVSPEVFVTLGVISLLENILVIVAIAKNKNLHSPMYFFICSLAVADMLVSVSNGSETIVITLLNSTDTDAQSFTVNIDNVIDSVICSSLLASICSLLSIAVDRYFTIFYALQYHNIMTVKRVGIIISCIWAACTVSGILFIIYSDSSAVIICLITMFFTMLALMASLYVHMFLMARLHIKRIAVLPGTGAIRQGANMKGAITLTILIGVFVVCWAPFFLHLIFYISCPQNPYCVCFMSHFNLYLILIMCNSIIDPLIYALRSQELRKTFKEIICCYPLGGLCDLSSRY

[24] = blockers of HIV-1 envelope-mediated cell-cell fusion – cherry-pick, dose response (AID 652057); assay type: functional, cell-based
[25] = blockers of HIV-1 ZM109 envelope-driven cell-cell fusion – HeLa effector, CEM target cells, luciferase, cherry-pick, dose response (AID 652058); assay type: functional, cell-based;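 note: luciferase signal from HIV-1 Env mediated cell-cell fusion of effector and target cells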
[26] = off-target signal loss in HeLa-CEM21 co-culture – HeLa F-luc CTL cells, cherry-picked, counter-screen for HIV-1 Env fusion inhibitor project, dose response (AID 652040); assay type: functional, cell-based;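 note: potency for signal decrease marking cytotoxic or nonspecific inhibition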
[27] = HIV-1 AD8 envelope cell-cell fusion blockers – cherry-pick, dose response (AID 652062); assay type: functional, cell-based;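 note: luciferase signal from cell-cell fusion driven by HIV-1 clade B AD8 Env; potency is for inhibitors of fusion seen as a drop in luminescence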
[28] = system: HEK293; assay: cells; settings: Homo sapiens
[29] = system: HEK293; assay: cells; settings: Homo sapiens; remark: listed apart in the source
[30] = biological target: T6, Calpain-2 catalytic subunit (Sus scrofa, UniProt P43367); assay: m-calpain protease blockers, concentration series – biochemical, fluorogenic peptide substrate, dose response (AID 1420); assay type: functional
T6 sequence (P43367 whole entry): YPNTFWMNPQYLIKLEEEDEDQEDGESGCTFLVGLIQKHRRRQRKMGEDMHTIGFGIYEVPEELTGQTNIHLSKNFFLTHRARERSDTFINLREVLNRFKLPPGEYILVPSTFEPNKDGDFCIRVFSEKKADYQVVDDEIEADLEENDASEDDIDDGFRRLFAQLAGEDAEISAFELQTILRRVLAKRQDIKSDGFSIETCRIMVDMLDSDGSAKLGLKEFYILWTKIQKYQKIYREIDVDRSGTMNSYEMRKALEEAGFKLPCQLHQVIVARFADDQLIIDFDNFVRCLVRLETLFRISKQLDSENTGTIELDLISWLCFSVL

COc1ccc(-c2cc3nc(NCCN4CCCC4)n(C)c(=O)c3s2)cc1OC
AC50 [1]: 11.6 µM (active) | AC50 [2]: 2.43 µM (active)

CCCN(CCC)CCCNC(=S)Nc1ccc2nc(N3CCN(C)CC3)cc(C)c2c1
EC50 [3]: 2.24 µM (active) | EC50 [4]: > 60 µM (not active) | AC50 [1]: 31.9 µM (active) | AC50 [2]: 5.96 µM (active)

Cc1c(O)ccc2c(CC(=O)N[C@@H](Cc3ccc(O)cc3)C(=O)O)cc(=O)oc12
EC50 [5]: > 195 µM (not active) | IC50 [6]: 0.906 µM (active)

CN1CCN(C(=O)c2cc3sc4ccccc4c3s2)CC1
EC50 [7]: > 260 µM (inactive) | IC50 [8]: > 80 µM (inactive)

Cc1ccc(OCC(=O)N2CCN(c3nnc(-c4ccc(C)cc4)c4ccccc34)CC2)cc1
EC50 [3]: 3.12 µM (active) | EC50 [4]: > 60 µM (not active) | EC50 [9]: 2.35 µM (active) | IC50 [10]: > 47.1 µM (inactive) | EC50 [11]: > 53 µM (inactive) | IC50 [8]: > 80 µM (inactive)

CCN(CC)S(=O)(=O)c1cc(NC(=O)CN2CCN(c3ccccn3)CC2)ccc1C
EC50 [12]: 92.5 µM (inactive) | EC50 [13]: 0.761 µM (active)

Cc1ccccc1C(=O)N[C@H](C(=O)N1CCC[C@H]1C(=O)NCCc1ccccc1Cl)c1ccccc1
IC50 [14]: > 29.9 µM (inactive) | EC50 [15]: 6.12 µM (active) | IC50 [16]: 7.72 µM (active) | EC50 [17]: > 29.9 µM (inactive)

O=C(CC1C(=O)NCCN1Cc1ccccn1)NCCc1ccccc1F (stereo not drawn)
IC50 [14]: > 29.9 µM (inactive) | EC50 [15]: 2.12 µM (active) | IC50 [16]: 5.23 µM (active) | EC50 [17]: > 29.9 µM (inactive)

CC(NNC(=S)N1CCCCCC1)c1ccc2ccccc2n1 (stereo not drawn)
AC50 [18]: 1.59 µM (active)

Cc1c(CCOC(=O)CC23CC4CC(CC(C)(C4)C2)C3)sc[n+]1CC(=O)c1ccccc1
EC50 [19]: > 120 µM (not active) | EC50 [20]: > 120 µM (not active) | EC50 [21]: > 120 µM (not active) | IC50 [22]: > 20 µM (inactive) | EC50 [23]: > 89.2 µM (inactive) | AC50 [24]: 3.05 µM (active) | AC50 [18]: 16.8 µM (active) | AC50 [25]: 3.85 µM (active) | AC50 [26]: 4.35 µM (active) | AC50 [27]: 12.7 µM (active) | EC50 [28]: > 59.6 µM (inactive) | EC50 [29]: > 59.6 µM (inactive)

CN(C)c1ccc(-c2ccnc3c2CC(C)(C(=O)NCc2cccs2)O3)cc1 (stereo not drawn)
IC50 [6]: 0.56 µM (active)

O=[N+]([O-])c1ccc(OCC(O)CN2CCN(c3ccccc3F)CC2)cc1 (stereo not drawn)
IC50 [30]: > 50 µM (not active) | EC50 [12]: 92.5 µM (inactive) | EC50 [13]: 76.1 µM (inactive)

From ChEMBL document CHEMBL1201862, “PubChem BioAssay data set” (2004)
